Reference: article PMC4222048 (European journal of pharmacology, 2014)
Positions count from the first letter of the chain named. Where a name gives a salt, the structure may show the parent alone. Read-outs that look alike come from different tables or passages of the source.

Key:
[1] = molecular target: T1, human K2P18.1 (Homo sapiens, UniProt Q7Z418); assay: Thallium-flux assay, HEK293 cells transfected with human K2P18.1; assay type: cell-based; settings: for K2P18.1 Minimum Activity: fitted minimum, fixed at 0 where indicated
T1 sequence (Q7Z418 1-384): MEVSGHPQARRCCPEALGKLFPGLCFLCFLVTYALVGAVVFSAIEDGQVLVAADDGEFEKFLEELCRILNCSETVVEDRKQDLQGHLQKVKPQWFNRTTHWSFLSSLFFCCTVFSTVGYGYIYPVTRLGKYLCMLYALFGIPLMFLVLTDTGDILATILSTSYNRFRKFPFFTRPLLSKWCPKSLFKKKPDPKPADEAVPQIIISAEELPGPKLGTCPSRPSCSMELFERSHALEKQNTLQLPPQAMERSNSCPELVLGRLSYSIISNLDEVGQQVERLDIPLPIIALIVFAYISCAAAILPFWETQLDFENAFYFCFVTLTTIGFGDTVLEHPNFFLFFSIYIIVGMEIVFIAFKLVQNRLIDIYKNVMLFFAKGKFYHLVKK

[2] = molecular target: T2, K2P9.1 (Homo sapiens, UniProt Q9NPC2); assay: Thallium-flux counter assay, tetracycline induced HEK293-K2P9.1 cells; assay type: cell-based; settings: for K2P9.1 Maximum Activity: dash = lack of compound activity
[3] = molecular target: T3, F145A/F352A double mutant K2P18.1 (mutK2P18.1) (Homo sapiens, UniProt Q7Z418, F145A/F352A); assay: Thallium-flux assay, F145A/F352A double mutant K2P18.1 in HEK293 cells; assay type: cell-based
T3 sequence (Q7Z418 1-384 F145A/F352A): T1 sequence (Q7Z418 1-384) with F145A, F352A

[4] = molecular target: T4, wild type K2P18.1 (wtK2P18.1) (Homo sapiens, UniProt Q7Z418); assay: Whole-cell patch clamp, HEK293-wtK2P18.1; assay type: cell-based
T4 sequence (Q7Z418 1-384): T1 sequence (Q7Z418 1-384)

[5] = molecular target: T2, K2P9.1; assay: Whole-cell patch clamp, tetracycline induced HEK293-K2P9.1 cells; assay type: cell-based
[6] = molecular target: T3, F145A/F352A double mutant K2P18.1 (mutK2P18.1); assay: Whole-cell patch clamp, HEK293-mutK2P18.1; settings: read-out: inhibition of mutK2P18.1 current
[7] = tested on: mouse K2P18.1; settings: 1 mM; ref Kim et al., 2013; cited from earlier work
[8] = tested on: F156A/F364A double mutant mouse K2P18.1; settings: 1 mM; ref Kim et al., 2013; cited from earlier work
[9] = read-out: K2P18.1 EC50, validation assay, Tl+ flux, activators, highest 30 μM
[10] = validation assay, Tl+ flux, activators
[11] = read-out: K2P9.1 EC50, validation assay, Tl+ flux, activators, highest 30 μM
[12] = read-out: K2P9.1 IC50, validation assay, Tl+ flux, HEK293-K2P9.1, highest 30 μM
[13] = read-out: inhibition of wtK2P18.1 current

T2 sequence (Q9NPC2 whole entry): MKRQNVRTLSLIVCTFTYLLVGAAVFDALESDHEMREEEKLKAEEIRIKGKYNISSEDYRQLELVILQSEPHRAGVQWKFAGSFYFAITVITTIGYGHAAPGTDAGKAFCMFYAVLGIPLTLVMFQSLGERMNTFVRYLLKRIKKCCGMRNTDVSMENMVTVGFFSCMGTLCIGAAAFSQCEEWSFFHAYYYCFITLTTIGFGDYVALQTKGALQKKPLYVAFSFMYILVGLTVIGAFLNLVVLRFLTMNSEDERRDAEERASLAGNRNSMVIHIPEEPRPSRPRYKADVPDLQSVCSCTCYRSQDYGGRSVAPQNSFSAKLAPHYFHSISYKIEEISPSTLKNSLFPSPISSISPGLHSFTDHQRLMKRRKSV

Compound: CN1CCN(C2Cc3ccccc3Sc3ccc(Cl)cc32)CC1.O=C(O)/C=C\C(=O)O (racemic) [(±)-Octoclothepin maleate]
- K2P18.1 Minimum Activity ([1]; validation assay, Tl+ flux): 0 (fixed) %

Compound: CC1OCC(C[N+](C)(C)C)O1.[I-] (single isomer, unassigned; (+)) [(+)-cis-Dioxolane iodide]
- EC50 [1, 9]: 0.04 µM
- K2P18.1 Maximum Activity [1, 10]: 165 (± 3.00) %
- EC50 [2, 11]: > 30 µM
- K2P9.1 Maximum Activity [2, 10]: -

Compound: Cn1c(=O)c2c(nc(C=Cc3cccc(Cl)c3)n2C)n(C)c1=O [8-(3-Chlorostyryl)caffeine]
- K2P18.1 Minimum Activity ([1]; validation assay, Tl+ flux): 0 (fixed) %
- IC50 [2]: > 30 µM

Compound: CS(=O)(=O)O.Cc1c(C(=O)c2cccc3ccccc23)c2cccc3c2n1[C@H](CN1CCOCC1)CO3 [(R)-(+)-WIN 55,212–2 mesylate]
- K2P18.1 Minimum Activity ([1]; validation assay, Tl+ flux): 25.6 (± 28.3) %
- IC50 [2, 12]: > 30 µM

Compound: C/C=C1\C(=O)C[C@H]2[C@@H]3CCC4=CC(=O)CC[C@]4(C)[C@H]3CC[C@]12C [(Z)-Gugglesterone]
- K2P18.1 Minimum Activity ([1]; validation assay, Tl+ flux): 0 (fixed) %
- IC50 [2, 12]: > 30 µM

Compound: CC(=O)OC(C)C[N+](C)(C)C.[Cl-] (stereo not drawn) [Acetyl-beta-methylcholine chloride]
- EC50 [1, 9]: 0.65 µM
- K2P18.1 Maximum Activity [1, 10]: 184 (± 2.38) %
- EC50 [2, 11]: > 30 µM
- K2P9.1 Maximum Activity [2, 10]: -

Compound: COC(=O)C1=CCCN(C)C1 [Arecoline hydrobromide]
- EC50 [1]: 2.7 µM
- K2P18.1 Maximum Activity [1, 10]: 155 (± 10.8) %
- EC50 [2]: > 30 µM
- K2P9.1 Maximum Activity [2, 10]: -

Compound: Clc1ccc(C(c2ccc(Cl)cc2)n2cc[n+](CC(OCc3ccc(Cl)cc3Cl)c3ccc(Cl)cc3Cl)c2)cc1 (centres unmarked) [Calmidazolium chloride]
- K2P18.1 Minimum Activity ([1]; validation assay, Tl+ flux): 0 (fixed) %
- IC50 [2]: > 30 µM

Compound: C[N+](C)(C)CCOC(N)=O [Carbachol, carbamoylcholine chloride, (2-Hydroxyethyl)trimethyl-ammonium chloride carbamate]
- EC50 [1]: 1.59 µM
- K2P18.1 Maximum Activity [1, 10]: 190 (± 9.96) %
- EC50 [2]: > 30 µM
- K2P9.1 Maximum Activity [2, 10]: -

Compound: Br.CO[C@H]1CC=C2CCN3CCC4=C(CC(=O)OC4)[C@]23C1 [Dihydro-beta-erythroidine hydrobromide]
- K2P18.1 Minimum Activity ([1]; validation assay, Tl+ flux): 0 (fixed) %

Compound: Cl.Cl.Fc1ccc(C(OCCN2CCN(CCCc3ccccc3)CC2)c2ccc(F)cc2)cc1 [GBR-12909 dihydrochloride]
- K2P18.1 Minimum Activity ([1]; validation assay, Tl+ flux): 0 (fixed) %
- IC50 [2, 12]: > 30 µM

Compound: CN(C)c1cc2c(Nc3ccc4c(cnn4Cc4ccccc4)c3)ncnc2cn1 [GW2974]
- K2P18.1 Minimum Activity ([1]; validation assay, Tl+ flux): 0 (fixed) %

Compound: CCCn1c(C)c(C(=O)c2cccc3ccccc23)c2ccccc21 [JWH-015]
- K2P18.1 Minimum Activity ([1]; validation assay, Tl+ flux): 26.7 (± 2.1) %
- IC50 [2, 12]: > 30 µM

Compound: CCCC(=O)NCCc1c2n(c3ccc(OC)cc13)CCCc1ccccc1-2 [K185]
- K2P18.1 Minimum Activity ([1]; validation assay, Tl+ flux): 0 (fixed) %
- IC50 [2, 12]: > 30 µM

Compound: CCCCOC(=O)NS(=O)(=O)c1sc(CC(C)C)cc1-c1ccc(Cn2c(CC)nc3c(C)cc(C)nc32)cc1 [L-162,313]
- K2P18.1 Minimum Activity ([1]; validation assay, Tl+ flux): 15.5 (± 12.5) %
- IC50 [2, 12]: > 30 µM

Compound: Cc1c(CC(C)(C)C(=O)O)n(Cc2ccc(Cl)cc2)c2ccc(F)cc12 [L-655,240]
- K2P18.1 Minimum Activity ([1]; validation assay, Tl+ flux): 0 (fixed) %
- IC50 [2, 12]: > 30 µM

Compound: Ic1ccccc1CNC1C2CCN(CC2)C1C(c1ccccc1)c1ccccc1.O=C(O)C(=O)O [L-703,606 oxalate]
- K2P18.1 Minimum Activity ([1]; validation assay, Tl+ flux): 1.30 (± 9.2) %

Compound: CCOC(=O)N1CCC(=C2c3ccc(Cl)cc3CCc3cccnc32)CC1 [Loratadine]
- K2P18.1 Minimum Activity ([1]; validation assay, Tl+ flux): 0 (fixed) %
- inhibition at 150 µM ([3]; HEK293, read-out: inhibition against mutK2P18.1): < 50%
- lower potency against mutK2P18.1 compared to wtK2P18.1 ([3]; Tl+ flux): at least 50 fold
- IC50 [4]: 0.49 ± 0.23 µM
- selectivity for K2P18.1 over K2P9.1 ([4]; from patch clamp IC50 values): ~ 11 fold
- inhibition at 10 µM [4, 13]: 87.5 ± 3.7%
- IC50 [5]: 5.27 ± 1.69 µM
- inhibition at 10 µM [6]: 3.9 ± 13.3%

Compound: CC(C)c1ccc2c(c1)c(SC(C)(C)C)c(CC(C)(C)C(=O)O)n2Cc1ccc(Cl)cc1 [MK-886]
- K2P18.1 Minimum Activity ([1]; validation assay, Tl+ flux): 23.5 (± 6.6) %
- IC50 [2, 12]: > 30 µM

Compound: CC[C@H](C)C(=O)O[C@H]1CCC=C2C=C[C@H](C)[C@H](CC[C@@H]3C[C@@H](O)CC(=O)O3)[C@H]21 [Mevastatin]
- K2P18.1 Minimum Activity ([1]; validation assay, Tl+ flux): 13.7 (± 7.6) %
- IC50 [2]: > 30 µM

Compound: COCC(=O)O[C@]1(CCN(C)CCCc2nc3ccccc3[nH]2)CCc2cc(F)ccc2[C@@H]1C(C)C [Mibefradil dihydrochloride]
- K2P18.1 Minimum Activity ([1]; validation assay, Tl+ flux): 11.9 (± 2.04) %

Compound: C[C@@H]1O[C@H](C[N+](C)(C)C)CS1.[I-] [OXA-22 Iodide]
- EC50 [1, 9]: 0.06 µM
- K2P18.1 Maximum Activity [1, 10]: 166 (± 4.50) %
- EC50 [2, 11]: > 30 µM
- K2P9.1 Maximum Activity [2, 10]: -

Compound: C[N+](C)(C)CC#CCN1CCCC1=O [Oxotremorine Methiodide]
- EC50 [1]: 0.24 µM
- K2P18.1 Maximum Activity [1, 10]: 171 (± 4.60) %
- EC50 [2]: > 30 µM
- K2P9.1 Maximum Activity [2, 10]: -

Compound: COc1cccc(-c2cc(=O)c3ccccc3o2)c1N [PD98,059]
- K2P18.1 Minimum Activity ([1]; validation assay, Tl+ flux): 22.9 (± 23.3) %
- IC50 [2, 12]: > 30 µM

Compound: CCCCCCCCCCCCCC(=O)O[C@@H]1[C@@H](C)[C@@]2(O)[C@@H](C=C(CO)C[C@]3(O)C(=O)C(C)=C[C@@H]23)[C@@H]2C(C)(C)[C@]12OC(C)=O [Phorbol 12-myristate 13-acetate]
- EC50 [1]: 0.03 µM
- K2P18.1 Maximum Activity [1]: 130 (± 2.01) %
- EC50 [2]: > 30 µM
- K2P9.1 Maximum Activity [2, 10]: -

Compound: COc1cc([C@@H]2c3cc4c(cc3[C@H](O)[C@H]3COC(=O)[C@H]23)OCO4)cc(OC)c1OC [Podophyllotoxin]
- IC50 [1]: 7.32 µM
- K2P18.1 Minimum Activity ([1]; validation assay, Tl+ flux): 0 (fixed) %
- IC50 [2]: > 30 µM

Compound: CC(=O)c1c(O)c(C)c(O)c(Cc2c(O)c3c(c(C(=O)/C=C/c4ccccc4)c2O)OC(C)(C)C=C3)c1O [Rottlerin]
- IC50 [1]: 16.2 µM
- K2P18.1 Minimum Activity ([1]; validation assay, Tl+ flux): 17.2 (± 42.4) %
- IC50 [2]: > 30 µM

Compound: O=C(CCCN1CCC2(CC1)C(=O)NCN2c1ccccc1)c1ccc(F)cc1 [Spiperone Hydrochloride]
- EC50 [1]: 3.02 µM
- K2P18.1 Maximum Activity [1, 10]: 161 (± 4.90) %
- EC50 [2]: > 30 µM
- K2P9.1 Maximum Activity [2, 10]: -

Compound: COc1cc2c(cc1OC)-c1c/c(=N\c3c(C)cc(C)cc3C)n(C)c(=O)n1CC2 [Trequinsin hydrochloride]
- K2P18.1 Minimum Activity ([1]; validation assay, Tl+ flux): 3.90 (± 20.2) %
- IC50 [2]: > 30 µM

Compound: OCc1ccc(-c2nn(Cc3ccccc3)c3ccccc23)o1 [YC-1]
- K2P18.1 Minimum Activity ([1]; validation assay, Tl+ flux): 0 (fixed) %
- IC50 [2, 12]: > 30 µM

Compound: CCN(CC)CC(=O)Nc1c(C)cccc1C [lidocaine, 2-Diethylamino-N-(2,6-dimethylphenyl)acetamide]
- IC50 ([1]; IC50 for K2P18.1 inhibition without carbachol, Tl+ flux, absence of carbachol): 3650 ± 380 µM
- IC50 [3]: 11600 ± 7100 µM
- inhibition at 1000 µM [4, 13]: 65.2 ± 10.4%
- inhibition of wild type mouse K2P18.1 [7]: 83 ± 5%
- inhibition of F156A/F364A double mutant mouse K2P18.1 [8]: 20 ± 15%
- inhibition at 1000 µM [6]: 18.2 ± 5.8%

Compound: Oligomycin A
- K2P18.1 Minimum Activity ([1]; validation assay, Tl+ flux): 52.0 (± 4.21) %
